Test results reported in patent US7531573B2 (priority 1994, dated 2009).
Like-named read-outs stand apart in the source and are kept apart here.

How the values were obtained:
[1] = target: Gardos channel of erythrocytes (Homo sapiens, UniProt O15554); test: cell-based; conditions: for inhibition at 10 µM: read-out: Gardos Channel % Inhibition
[2] = tested on: NIH 3T3 mouse fibroblast cells; test: Mitogen-induced cell proliferation; type: cell-based; conditions: for inhibition at 10 µM: NIH3T3, read-out: Mitogen-induced cell proliferation % Inhibition; for IC50: NIH3T3, read-out: Mitogen-induced cell proliferation IC50
Description: Other cell lines, e.g., cancer cells, endothelial cells and fibroblasts, as well as many others, may be used in the cell proliferation assay. Selection of a particular cell line will depend in part on the desired application, and is well within the capabilities of an ordinarily skilled artisan.

[3] = erythrocytes, read-out: Gardos Channel IC50

Sequence of Gardos channel of erythrocytes (O15554 whole entry): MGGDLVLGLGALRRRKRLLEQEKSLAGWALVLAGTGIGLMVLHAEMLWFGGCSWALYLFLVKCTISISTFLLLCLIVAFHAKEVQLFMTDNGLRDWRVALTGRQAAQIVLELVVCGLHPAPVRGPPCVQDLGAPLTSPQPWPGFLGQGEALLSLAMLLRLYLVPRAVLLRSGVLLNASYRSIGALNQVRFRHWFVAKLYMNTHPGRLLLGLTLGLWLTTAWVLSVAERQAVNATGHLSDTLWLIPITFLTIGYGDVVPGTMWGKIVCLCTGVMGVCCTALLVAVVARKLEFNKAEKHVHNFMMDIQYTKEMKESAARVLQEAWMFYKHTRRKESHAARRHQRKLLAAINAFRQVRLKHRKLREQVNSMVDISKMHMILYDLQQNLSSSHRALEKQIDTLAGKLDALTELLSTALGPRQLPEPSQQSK

Row | Compound | IC50 [1] [nM] | inhibition at 10 µM [1] [%] | inhibition at 10 µM [2] [%] | IC50 [2] [nM] | IC50 [1, 3] [nM]
1 | OC(c1ccccc1)(c1ccccc1)c1ccccc1 [Compound 1] | 755 | 97 |  |  | 
2 | ClC(c1ccccc1)(c1ccccc1)c1ccccc1 [Compound 2] | 459 | 99.4 | 64.8 |  | 
3 | c1ccc(C(c2ccccc2)c2ccccc2)cc1 [Compound 3] | 1200 | 86.6 | 53 |  | 
4 | c1ccc(C(c2ccccc2)c2ccncc2)cc1 [Compound 4] | 2860 | 91 | 37.7 |  | 
5 | NC(c1ccccc1)(c1ccccc1)c1ccccc1 [Compound 5] | 1650 | 86 | 66 | 1280 | 
6 | c1ccc(C(c2ccccc2)(c2ccccc2)[n+]2ccccc2)cc1 [Compound 7] |  | 98.2 | 6.6 |  | 410
7 | c1ccc(N(c2ccccc2)c2ccccc2)cc1 [Compound 8] |  | 95.6 | 28.3 |  | 2850
8 | O=C(O)CC(c1ccccc1)(c1ccccc1)c1ccccc1 [Compound 9] | 21800 | 77.2 | 32.7 |  | 
9 | C1=CC(=P(c2ccccc2)(c2ccccc2)c2ccccc2)C=C1 [Compound 10] |  | 89.7 | 25.5 | 4800 | 957
10 | SC(c1ccccc1)(c1ccccc1)c1ccccc1 [Compound 11] |  | 99.2 | 52 | 2310 | 2160
11 | BrC(c1ccccc1)(c1ccccc1)c1ccccc1 [Compound 12] | 252 | 99 | 72.8 | 1700 | 
12 | N#CC(c1ccccc1)(c1ccccc1)c1ccccc1 [Compound 13] |  | 72.4 | 87 | 920 | 133
13 | N#CC(c1ccccc1)(c1ccccc1)c1ccccc1Cl [Compound 14, (2-chlorophenyl)-diphenylacetonitrile] | 48 | 98.8 | 95.8 | 2200 | 
14 | NC(=O)CC(c1ccccc1)(c1ccccc1)c1ccccc1 [Compound 18] |  | 98 | 76.1 | 10000 | 431
15 | N#CCC(c1ccccc1)(c1ccccc1)c1ccccc1 [Compound 19] |  | 97 | 80 | 5800 | 1130
16 | OC(c1ccccc1)(c1ccccc1)c1ccccc1F [Compound 20] | 795 | 98.1 | 39 |  | 
17 | OC(c1ccccc1)(c1ccccc1)c1ccc(-c2ccccc2)cc1 [Compound 21] | 725 | 97.3 | 99 | 2800 | 
18 | OCCC(c1ccccc1)(c1ccccc1)c1ccccc1 [Compound 22] | 302 | 82 | 85 | 6800 | 
19 | O=C1CC[C@@H](COC(c2ccccc2)(c2ccccc2)c2ccccc2)N1 [Compound 23] |  | 97.9 | 77 | 3800 | 216

Row | Compound | IC50 [1] [nM] | inhibition at 10 µM [1] [%] | inhibition at 10 µM [2] [%] | IC50 [2] [nM] | IC50 [1, 3] [nM]
20 | O=C1CC[C@@H](COC(c2ccccc2)(c2ccccc2)c2ccccc2)O1 [Compound 24] |  | 97.9 | 29 |  | 135
21 | O=C(O)CNC(c1ccccc1)(c1ccccc1)c1ccccc1 [Compound 25] |  | 34.4 | 70 |  | 
22 | N#CCC(c1ccc(Cl)cc1)(c1ccc(Cl)cc1)c1ccc(Cl)cc1 [Compound 26] |  | 10 | 99 | 1300 | 
23 | Fc1ccccc1C(c1ccccc1)c1ccccc1 [Compound 27] |  | 100 | 99 | 3000 | 449
24 | O=C(O)C(Cc1ccc2ccccc2c1)C(c1ccccc1)(c1ccccc1)c1ccccc1 (centres unmarked) [Compound 28] |  | 98 | 99 | 700 | 5220
25 | NCCC(c1ccccc1)(c1ccccc1)c1ccccc1 [Compound 29] |  | 100 | 99 | 3100 | 649
26 | CCOC(=O)C(C(=O)OCC)C(c1ccccc1)(c1ccccc1)c1ccccc1 [Compound 31] | 445 | 99 | 89 | 2600 | 
27 | CCOC(=O)C(C(=O)OCC)C(c1ccccc1)(c1ccccc1)c1ccccc1Cl [Compound 33] | 125 | 100 | 45 |  | 
28 | NOC(c1ccccc1)(c1ccccc1)c1ccccc1 [Compound 34] |  | 96.3 | 68 |  | 939
29 | OCC(c1ccccc1)(c1ccccc1)c1ccccc1 [Compound 35] | 430 | 95.8 | 38 |  | 
30 | CC(=O)C(c1ccccc1)(c1ccccc1)c1ccccc1 [Compound 37] |  | 100 | 31 |  | 57
31 | O=CCC(c1ccccc1)(c1ccccc1)c1ccccc1 [Compound 38] |  | 92 | 99 | 800 to 2300 | 220
32 | O=C(O)CC(c1ccc(Cl)cc1)(c1ccc(Cl)cc1)c1ccc(Cl)cc1 [Compound 39] |  | 97 | 99 | 3300 | 1680
33 | CON(C)C(=O)CC(c1ccc(Cl)cc1)(c1ccc(Cl)cc1)c1ccc(Cl)cc1 [Compound 40] |  |  | 99 | 1000 to 1200 | 
34 | NCCC(c1ccc(Cl)cc1)(c1ccc(Cl)cc1)c1ccc(Cl)cc1 [Compound 41] |  | 97 | 99 | 1400 | 2070
35 | Oc1ccccc1C(O)(c1ccccc1)c1ccccc1 [Compound 42] | 615 | 99 | 99 | 3300 | 
36 | OC(c1ccccc1)(c1ccccc1)c1ccc(Cl)cc1 [Compound 43] | 61 | 99 | 99 | 800 | 
37 | C#C[Si](c1ccccc1)(c1ccccc1)c1ccccc1 [Compound 44] | 388 | 79.4 | 82 |  | 
38 | COC(=O)c1ccccc1C(c1ccccc1)c1ccccc1 [Compound 45] |  | 98 | 99 | 800 | 320

Row | Compound | IC50 [1] [nM] | inhibition at 10 µM [1] [%] | inhibition at 10 µM [2] [%] | IC50 [2] [nM] | IC50 [1, 3] [nM]
39 | CCOC(c1ccccc1)(c1ccccc1)c1ccccc1 [Compound 46] |  | 99.5 | 99 | 2200 | 76
40 | CCOC(=O)C(c1ccccc1)(c1ccccc1)c1ccccc1 [Compound 47] |  | 100 | 99 | 800 | 193
41 | OC(C#Cc1ccccc1)(c1ccccc1)c1ccccc1 [Compound 48] | 1290 | 100 | 98 | 400 | 
42 | N#CC(c1ccccc1)(c1ccccc1)c1ccc([N+](=O)[O-])cc1Cl [Compound 49] |  | 88 | 94 | 300 | 336
43 | OC(c1ccccc1)(c1ccc(Br)cc1)c1ccc(Br)cc1 [Compound 50] | 288 | 100 | 99 | 500 | 
44 | COC(c1ccccc1)(c1ccccc1)c1ccccc1 [Compound 51] |  | 100 | 37 |  | 551
45 | N#CC(c1ccccc1)(c1ccccc1)c1ccc([N+](=O)[O-])cc1 [Compound 52] |  | 94 | 93 | 1700 | 255
46 | COC(=O)CC(c1ccccc1)(c1ccccc1)c1ccccc1 [Compound 53] |  | 98 | 74 |  | 101
47 | Nc1ccc(C(O)(c2ccc(N)cc2)c2ccc(N)cc2)cc1 [Compound 54] |  | 17.4 | 99 | 200 | 
48 | CCOC(=O)C(C(=O)OCC)C(c1ccccc1)(c1ccccc1)c1ccccc1F [Compound 55] |  | 98 | 5 |  | 58
49 | CON(C)C(=O)CC(c1ccccc1)(c1ccccc1)c1ccccc1 [Compound 56] |  | 91 | 99 | 3200 | 275
50 | CCOC(=O)CNC(c1ccccc1)(c1ccccc1)c1ccccc1 [Compound 57] |  | 89 | 21 |  | 1510
51 | COc1ccc(C(O)(c2ccccc2)c2ccc(OC)cc2)cc1 [Compound 58] | 247 | 99.6 | 99 |  | 
52 | Cc1ccc(C(O)(c2ccc(C)cc2)c2ccc(C)cc2)cc1 [Compound 59] | 489 | 100 | 98 | 3000 | 
53 | COc1ccc(C(O)(c2ccccc2)c2ccccc2)cc1 [Compound 60] | 304 | 98 | 31 |  | 
54 | OC(c1ccccc1)(c1ccccc1)c1cccc2ccccc12 [Compound 61] | 2370 | 85 | 99 | 1600 | 
55 | OCCC[CH2][Ge]([c]1ccccc1)([c]1ccccc1)[c]1ccccc1 [Compound 72] | 1080 |  |  |  | 
56 | c1ccc([Si](c2ccccc2)(c2ccccc2)c2cccs2)cc1 [Compound 76] |  |  | 84 |  | 
